Source: US5523314A, “Compounds useful as hypoglycemic agents and for treating Alzheimer's disease” (priority 1994, dated 1996)
Counter-ions that a name gives are not always drawn. Like-named read-outs stand apart in the source and are kept apart here.

What was measured:
[1] = system: blood glucose level; experiment: Hypoglycemic activity in obese diabetic mice (Table 1); type: in vivo, male viable yellow obese-diabetic mice; conditions: Mus musculus, ip; for response vs control in vivo at 50 mg/kg: intraperitoneal
Procedure, shortened: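 Male viable yellow obese-diabetic mice, six per group, dosed intraperitoneally once with compound in saline containing 2% Emulphor. Blood glucose measured by glucose oxidase before dosing and at 2 and 4 h. Values are the 2 h and 4 h glucose as % of pre-dose level.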

[2] = target: T1, Human liver cathepsin D (Homo sapiens, UniProt P07339); experiment: Cathepsin D inhibition, fluorometric assay (Tables 5 and 6); type: biochemical; conditions: for inhibition at 8.3 µg/mL (stock): Compound Stock Concentration 8.3 μg/ml; for inhibition at 10 µg/mL (stock): Compound Stock Concentration 10.0 μg/ml; for inhibition at 4.15 µg/mL (stock): Compound Stock Concentration 4.15 μg/ml
T1 construct: purchased Athens Research and Technology, Athens, Ga; host or cells: human liver
Procedure: Human liver cathepsin D (Athens Research and Technology, Athens, Ga.) was diluted in assay buffer, 200 mM NaOAc, pH 4.5, 150 mM NaCl to 500 ng/mL and then 100 μL of this cathepsin D solution was added to each well of a 96 well plate with the exception of control wells which received just 100 μL of assay buffer. […] Blank and enzyme control wells each received 5 μL of the DMSO vehicle.
After incubation at 37° C. for 30 minutes, cathepsin D activity was terminated by the addition of 100 μL per well of 400 mU/mL microsomal leucine aminopeptidase (EC 3.4.11.2, Sigma, St. Louis, Mo.) in 1M Tris-HCl, pH 8.0.
Following a two hour incubation at 37° C., to allow the aminopeptidase to release the fluorophore, 7-amido-4-methylcoumarin (AMC) from the products of cathepsin D cleavage, the plates were again analyzed in the fluorometer. In order to check for potential false positives, i.e., inhibitors of microsomal leucine aminopeptidase, residual aminopeptidase activity was monitored directly in each well by the addition of 20 μL/well of 2.5 mM Leu-pNA (Bachem Biosciences, Philadelphia, Pa.) in 10% DMSO.

[3] = system: β-amyloid protein; experiment: β-amyloid protein production inhibition in 293 751 SWE and CHO 751 SWE cells, ELISA (Table 7); type: cell-based; conditions: normalized for cytotoxicity; for inhibition at 10 µg/mL (stock): Compound Stock Concentration 10.0 μg/ml; for inhibition at 0.31 µg/mL (stock): Compound Stock Concentration 0.31 μg/ml; for inhibition at 0.62 µg/mL (stock): Compound Stock Concentration 0.62 μg/ml; for inhibition at 1.25 µg/mL (stock): Compound Stock Concentration 1.25 μg/ml; for inhibition at 2.5 µg/mL (stock): Compound Stock Concentration 2.5 μg/ml; for inhibition at 5 µg/mL (stock): Compound Stock Concentration 5.0 μg/ml
Procedure: Two cell lines (human kidney cell line 293 and Chinese hamster ovary cell line CHO) were stably transfected with the gene for APP751 containing the double mutation Lys-651-Met-652 to Asn-651-Leu-652 (APP-751 numbering) commonly called the Swedish mutation using the method described in Citron et al., Nature 360:672-674 (1992). The transfected cell lines were designated as 293 751 SWE and CHO 751 SWE, and were plated in Corning 96 well plates at 2.5×10^4 or 1×10^4 cells per well respectively in Dulbecco's minimal essential media (DMEM) plus 10% fetal bovine serum. […] These compound stocks were prepared by dissolving a sufficient quantity of the particular compound to be tested in DMSO such that various concentrations were obtained. After this pretreatment period, the conditioned media was removed and replaced with fresh conditioned media and the cells were incubated for an additional two hours.
After treatment, plates were centrifuged in a Beckman GPR at 1200 rpm for five minutes at room temperature to pellet cellular debris from the conditioned media. From each well, 100 μL of conditioned media were transferred into an ELISA plate precoated with antibody 266 [Seubert et al., Nature, 359:325-327 (1992)] and stored at 4° C. overnight prior to the completion of the ELISA assay the next day.
Cytotoxic effects of the compounds were measured by a modification of the method of Hansen et al., J. Immun. Meth. 119:203-210 (1989). To the cells remaining in the tissue culture plate, was added 25 μL of a 3-(4,5-dimethylthiazol-2-yl)-2,5-diphenyltetrazolium bromide (MTT) stock solution (5 mg/mL) to a final concentration of 1 mg/mL. Cells were incubated at 37° C. for one hour, and cellular activity was stopped by the addition of an equal volume of MTT lysis buffer (20% w/v sodium dodecylsulfate in 50% DMF, pH 4.7). Complete extraction was achieved by overnight shaking at room temperature. The difference in the OD562nm and the OD650nm was measured in a Molecular Devices UVmax microplate reader as an indicator of the cellular viability.
The results of the β-amyloid protein ELISA were fit to a standard curve and expressed as ng/mL β-amyloid protein peptide. In order to normalize for cytotoxicity, these β-amyloid protein results were divided by the cytotoxicity results and expressed as a percentage of the results from a drug-free control.

[4] = system: blood glucose level; experiment: Hypoglycemic activity in normal fed rats (Table 2); type: in vivo, male Sprague Dawley rats; conditions: Rattus norvegicus
Procedure: The procedure used in this test system is described below.
The desired dose level of each test formulation was administered to four rats by oral […] at the beginning of the experiment. Blood glucose levels were determined immediately before the first dose and at 3 and 5 hours thereafter by an enzymatic procedure employing glucose oxidase and peroxidase coupled with a chromogenic oxygen acceptor. A mean was taken of the 4 values obtained before the first dose and at the 3 and 5 hour intervals.

[5] = system: plasma glucose concentration; experiment: Long-term hypoglycemic activity, compound in diet, ZDF rats (Table 4); type: in vivo, 8 week old male Zucker Diabetic Fatty rat; conditions: 0.1% in diet
Procedure: Finally, the long-term hypoglycemic activity of the compounds of the present invention was tested in yet another in vivo test system. This long-term test system entailed incorporating test compound into the test animal's diet at various concentrations (control animal's diet contained no test compound). Such diet was then fed to the test or control animals for either 14 or 21 days. Each test or control animal was then bled from the tail (200-400 μl sample of blood) at 0 (before diet started), 7, 14 and, if appropriate, 21 and 28 days after diet administration was started. Plasma samples were then obtained from each blood sample collected and the glucose concentration of such plasma samples was determined enzymatically.
Columns 4-8 provide the plasma glucose concentration at days 0, 7, 14 and, if appropriate, 21 and 28, respectively, for the animals tested. Glucose lowering was not associated with depressed diet consumption.

[6] = 2 h, 2 hrs, read-out: Percent of Initial Blood Glucose Level After 2 hrs.
[7] = 4 h, 4 hrs, read-out: Percent of Initial Blood Glucose Level After 4 hrs.
[8] = 200 mg/kg, oral, 3 hrs, read-out: Percent of Initial Blood Glucose Level After 3 hrs.
[9] = 200 mg/kg, oral, 5 hrs, read-out: Percent of Initial Blood Glucose Level After 5 hrs.

T1 sequence (P07339 169-412 limits assumed): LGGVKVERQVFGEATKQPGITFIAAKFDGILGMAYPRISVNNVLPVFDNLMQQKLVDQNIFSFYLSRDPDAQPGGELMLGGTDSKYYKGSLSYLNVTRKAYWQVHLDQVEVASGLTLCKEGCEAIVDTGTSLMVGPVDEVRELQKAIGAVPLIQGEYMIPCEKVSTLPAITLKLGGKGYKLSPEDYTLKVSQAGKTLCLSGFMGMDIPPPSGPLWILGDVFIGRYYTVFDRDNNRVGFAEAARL
T1 sequence (P07339 65-161 limits assumed): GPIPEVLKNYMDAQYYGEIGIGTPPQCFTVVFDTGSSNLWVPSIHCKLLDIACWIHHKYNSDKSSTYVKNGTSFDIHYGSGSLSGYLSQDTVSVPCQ

Row | IC50 [2] [µM] | inhibition at 4.15 µg/mL (stock) [2] [%] | Compound | response vs control in vivo at 50 mg/kg [1, 6] [%] | response vs control in vivo at 50 mg/kg [1, 7] [%] | inhibition at 10 µg/mL (stock) [3] [%] | response vs control in vivo at 200 mg/kg [4, 8] [%] | response vs control in vivo at 200 mg/kg [4, 9] [%] | other results
1 | 3.6 | – | O=C1NC(=S)SC1=Cc1ccc(Oc2ccccc2)cc1 [Example 5, 5-[(4-phenoxyphenyl)methylene]-2-thioxo-4-thiazolidinone] | 79 ± 4 | 71 ± 3 | 47 | – | – | inhibition at 8.3 µg/mL (stock) [2]: 100%; inhibition at 10 µg/mL (stock) [2]: 76%
2 | – | 75 | CCOc1cc(C=C2SC(=S)NC2=O)ccc1O [Example 32, 5-[(3-ethoxy-4-hydroxyphenyl)methylene]-2-thioxo-4-thiazolidinone] | 75 ± 4 | 80 ± 8 | – | 100 | 96 | –
3 | 1.7 | 78 | O=C1NC(=S)SC1=Cc1ccc(-c2ccccc2)cc1 [Example 42, 5-[[(1,1'-biphenyl)-4-yl]methylene]-2-thioxo-4-thiazolidinone] | 87 ± 8 | 70 ± 8 | 51 | – | – | inhibition at 10 µg/mL (stock) [2]: 87.5%; inhibition at 0.31 µg/mL (stock) [3]: 8%; inhibition at 0.62 µg/mL (stock) [3]: 11%; inhibition at 1.25 µg/mL (stock) [3]: 14%; inhibition at 2.5 µg/mL (stock) [3]: 16%; inhibition at 5 µg/mL (stock) [3]: 35%
4 | – | – | CCCOc1ccc(C=C2SC(=S)NC2=O)cc1OCC [Example 49, 5-[(3-ethoxy-4-propoxyphenyl)methylene]-2-thioxo-4-thiazolidinone] | 83 ± 5 | 77 ± 7 | – | 100 | 98 | –
5 | – | – | CCCCCOc1ccc(C=C2SC(=S)NC2=O)cc1OC [Example 57, 5-[(3-methoxy-4-pentoxyphenyl)methylene]-2-thioxo-4-thiazolidinone sodium salt] | – | – | – | – | – | response vs control in vivo at 200 mg/kg ([4]; po, 3 h, read-out: Percent of Initial Blood Glucose Level After 3 hrs.): 84%; response vs control in vivo at 200 mg/kg ([4]; po, 5 h, read-out: Percent of Initial Blood Glucose Level After 5 hrs.): 73%; response vs control in vivo at 5 mg/kg ([1]; 2 h, read-out: Percent of Initial Blood Glucose Level After 2 hrs., 5 mg/kg, intraperitoneal, 2 hrs): 82 ± 6%; response vs control in vivo at 10 mg/kg ([1]; 2 h, read-out: Percent of Initial Blood Glucose Level After 2 hrs., 10 mg/kg, intraperitoneal, 2 hrs): 95 ± 3%; response vs control in vivo at 5 mg/kg ([1]; 4 h, read-out: Percent of Initial Blood Glucose Level After 4 hrs., 5 mg/kg, intraperitoneal, 4 hrs): 68 ± 5%; response vs control in vivo at 10 mg/kg ([1]; 4 h, read-out: Percent of Initial Blood Glucose Level After 4 hrs., 10 mg/kg, intraperitoneal, 4 hrs): 87 ± 6%
6 | – | – | CCOc1cc(C=C2SC(=S)NC2=O)ccc1OC [Example 58, 5-[(3-ethoxy-4-methoxyphenyl)methylene]-2-thioxo-4-thiazolidinone] | 67 ± 2 | 75 ± 5 | – | 100 | 100 | –
7 | – | – | CCCOc1ccc(C=C2SC(=S)NC2=O)cc1 [Example 61, 5-[(4-propoxyphenyl)methylene]-2-thioxo-4-thiazolidinone] | – | 61 ± 5 | – | 89 | 82 | –
8 | – | 53 | COc1cc(C=C2SC(=S)NC2=O)cc(OC)c1O [Example 63, 5-[(3,5-dimethoxy-4-hydroxyphenyl)methylene]-2-thioxo-4-thiazolidinone] | – | – | – | 69 | 52 | –
9 | – | – | CCCCCOc1ccc(CC2SC(=S)NC2=O)cc1OC (stereo not drawn) [Example 64, 5-[(3-methoxy-4-pentoxyphenyl)methyl]-2-thioxo-4-thiazolidinone] | – | – | – | 91 | 89 | Plasma Glucose Concentration ([5]; day 0 (before diet started)): 339 mg/dL; Plasma Glucose Concentration ([5]; day 7): 187 mg/dL; Plasma Glucose Concentration ([5]; day 14): 182 mg/dL
10 | 10.2 | 53.7 | CCCCCCOc1ccc(C=C2SC(=S)NC2=O)cc1OC [Example 68, 5-[(3-methoxy-4-hexoxyphenyl)methylene]-2-thioxo-4-thiazolidinone] | – | – | – | 88 | 89 | –
11 | 3.7 | 64 | O=C1NC(=S)SC1=Cc1cccc(Oc2ccccc2)c1 [Example 77, 5-[(3-phenoxyphenyl)methylene]-2-thioxo-4-thiazolidinone] | – | – | 25 | – | – | inhibition at 10 µg/mL (stock) [2]: 87%

Row | Compound | IC50 [2] [µM] | inhibition at 4.15 µg/mL (stock) [2] [%] | response vs control in vivo at 50 mg/kg [1, 6] [%] | response vs control in vivo at 50 mg/kg [1, 7] [%] | inhibition at 10 µg/mL (stock) [3] [%] | response vs control in vivo at 200 mg/kg [4, 8] [%] | response vs control in vivo at 200 mg/kg [4, 9] [%] | other results
12 | CCCCCCCOc1ccc(C=C2SC(=S)NC2=O)cc1OC [Example 31, 5-[(3-methoxy-4-heptoxyphenyl)methylene]-2-thioxo-4-thiazolidinone] | 1.9 | 69.5 | 76 ± 7 | 76 ± 5 | 57 | 95 | 92 | inhibition at 10 µg/mL (stock) [2]: 88.5%; inhibition at 0.31 µg/mL (stock) [3]: 0%; inhibition at 0.62 µg/mL (stock) [3]: 7%; inhibition at 1.25 µg/mL (stock) [3]: 15%; inhibition at 2.5 µg/mL (stock) [3]: 28%; inhibition at 5 µg/mL (stock) [3]: 37%
13 | CCCCCCCCOc1ccc(C=C2SC(=S)NC2=O)cc1OC [Example 69, 5-[(3-methoxy-4-octoxyphenyl)methylene]-2-thioxo-4-thiazolidinone] | 2.1 | 51 | – | – | – | 93 | 88 | –
14 | CCCCCCCOc1ccc(C=C2SC(=S)N(N(C)C)C2=O)cc1OC [Example 81, 5-[(3-methoxy-4-heptoxyphenyl)methylene]-2-thioxo-3-dimethylamino-4-thiazolidinone] | 319 | – | – | – | 100 | – | – | inhibition at 8.3 µg/mL (stock) [2]: 21%
